# Reference: patent US7160892B2, “Pyrimidone compounds and pharmaceutical compositions containing the same” (Eisai Co., Ltd., priority 2001, dated 2007)
# Columns and labels:
# [1] = target: T1, adenosine A2A receptor (Homo sapiens, UniProt P29274); test: Measurement of the binding ability to adenosine A2A receptor (3H-CGS21680 displacement, membrane sample); settings: read-out: K1(nM) A2A
# T1 construct: purchased Receptor Biology Inc
# Experimental: Measurement of the Binding Ability to Adenosine A2A Receptor
# An experiment of inhibition of binding to adenosine A2A receptor was conducted using a membrane sample (Receptor Biology Inc.) where an adenosine A2A receptor cDNA was expressed in excess. This membrane sample was suspended at a protein concentration of 22.2 μg/ml in 20 mM HEPES buffer, pH 7.4 (10 mM MgCl2 and 100 mM NaCl). To 0.45 ml of this membrane sample suspension were added 0.025 ml of 500 nM tritium-labeled 2-p-[2-carboxyethyl]phenetylamino-5′-N-ethylarboxyamide adenosine (^3H-CGS21680, from NEN) and 0.025 ml of test compound. […] Thereafter, the glass fiber filter was transferred to a vial, scintillator was added thereto, and the radioactivity on the filter was measured by a liquid scintillation counter. […]
# Here, the total binding means ^3H-CGS21680-bound radioactivity in the […] of the test compound; the nonspecific binding means ^3H-CGS21680-bound radioactivity in the presence of 100 μM RPIA; and the binding in the […] of the test compound means ^3H-CGS21680-bound radioactivity in the […] of the test compound at predetermined concentrations. The inhibition constant (Ki value) in the table was determined from the formula of Cheng-Prusoff.
# [2] = target: T2, human adenosine A2B receptor (Homo sapiens, UniProt P29275); test: Inhibition of NECA-stimulated production of cAMP in adenosine A2B receptor-expressing cells; assay type: cell-based; settings: read-out: I C50(nM) A2B
# T2 construct: expressed in transfected cells; host or cells: CHOK1 cells
# T2 sequence (P29275 1-332): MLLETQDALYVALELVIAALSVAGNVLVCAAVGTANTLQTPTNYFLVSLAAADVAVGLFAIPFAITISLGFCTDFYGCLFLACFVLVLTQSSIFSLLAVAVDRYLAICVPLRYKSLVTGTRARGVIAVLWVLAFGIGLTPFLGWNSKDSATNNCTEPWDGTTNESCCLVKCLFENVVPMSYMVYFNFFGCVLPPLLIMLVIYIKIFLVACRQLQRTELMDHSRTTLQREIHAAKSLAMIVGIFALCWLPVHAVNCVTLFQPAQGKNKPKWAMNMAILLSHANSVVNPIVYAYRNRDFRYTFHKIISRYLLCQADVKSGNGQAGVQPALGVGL
# Experimental: Experiment of Inhibition of NECA-Stimulated Production of cAMP in Adenosine A2B Receptor-Expressing Cells
# CHOK1 cells where human adenosine A2B receptor had been expressed in excess were plated onto a 24-well plate at a density of 1.5×10^5 cells/well, cultured overnight, and used in the experiment. […] That is, the adhering cells were washed twice with 2 ml/well Krebs-Ringer buffer solution (containing 0.1% BSA; pH 7.4) and pre-incubated for 30 minutes in a volume of 0.5 ml/well. […] After pre-incubation for 15 minutes, the reaction was terminated with 0.1 N HCl in a volume of 300 μl/well. Measurement of intracellular cAMP was carried out using a cAMP enzyme immunoassay kit produced by Amersham.
# [3] = target: T3, human adenosine A1 receptor (Homo sapiens, UniProt P30542); test: Measurement of the binding ability to adenosine A1 receptor (3H-CCPA displacement, CHOK1 membranes); settings: read-out: K1(nM) A1
# T3 construct: expressed in transfected cells; host or cells: CHOK1 cells (membrane sample)
# T3 sequence (P30542 1-326): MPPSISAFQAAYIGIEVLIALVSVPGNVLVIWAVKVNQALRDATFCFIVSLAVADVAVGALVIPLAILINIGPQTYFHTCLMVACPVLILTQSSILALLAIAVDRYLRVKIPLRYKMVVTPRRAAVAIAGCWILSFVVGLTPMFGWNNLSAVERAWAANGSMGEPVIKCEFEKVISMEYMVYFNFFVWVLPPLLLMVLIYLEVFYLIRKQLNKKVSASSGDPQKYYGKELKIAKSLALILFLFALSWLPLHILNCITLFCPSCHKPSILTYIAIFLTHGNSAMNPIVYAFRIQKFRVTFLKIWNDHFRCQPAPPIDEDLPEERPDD
# Experimental: Measurement of the Binding Ability to Adenosine A1 Receptor
# A human adenosine A1 receptor cDNA was expressed in excess in CHOK1 cells, and this membrane sample was suspended at a protein concentration of 66.7 μg/ml in 20 mM HEPES buffer, pH 7.4 (10 mM MgCl2, 100 mM NaCl). To 0.45 ml of this membrane sample suspension were added 0.025 ml of 60 nM tritium-labeled chlorocyclopentyl adenosine (^3H—CCPA, from NEN Ltd.) and 0.025 ml of test compound. This mixture was left at 30° C. for 120 minutes, filtered rapidly under suction through a glass fiber filter (GF/B, from Whatman), and immediately washed twice with 5 ml of 50 mM water-cooled Tris-HCl buffer. Thereafter, the glass fiber filter was transferred to a vial, scintillator was added thereto, and the radioactivity on the filter was measured by a liquid scintillation counter. […]
# In the above formula, the total binding means ^3H-CCPA-bound radioactivity in the absence of the test compound; the nonspecific binding means ^3H-CCPA-bound radioactivity in the presence of 100 μM RPIA ([R]-[1-methyl-2-phenylethyl] adenosine); and the binding in the presence of the test compound means ^3H-CCPA-bound radioactivity in the presence of the test compound at predetermined concentrations. The inhibition constant (Ki value) in the table was determined from the formula of Cheng-Prusoff.
# T1 sequence (P29274 whole entry): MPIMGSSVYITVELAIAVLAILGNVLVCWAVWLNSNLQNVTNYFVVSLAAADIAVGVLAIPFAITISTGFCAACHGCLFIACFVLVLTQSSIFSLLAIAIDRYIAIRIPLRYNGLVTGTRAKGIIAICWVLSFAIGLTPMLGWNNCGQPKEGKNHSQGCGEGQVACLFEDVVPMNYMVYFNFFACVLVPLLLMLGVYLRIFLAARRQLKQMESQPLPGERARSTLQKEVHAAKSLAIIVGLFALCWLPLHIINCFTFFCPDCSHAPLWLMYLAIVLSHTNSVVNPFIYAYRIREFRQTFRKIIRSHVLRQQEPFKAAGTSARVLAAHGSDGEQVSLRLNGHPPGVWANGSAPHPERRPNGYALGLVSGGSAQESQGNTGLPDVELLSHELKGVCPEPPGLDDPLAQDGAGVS
SMILES,Ki [1],IC50 [2],Ki [3]
"Nc1nc(-c2ccco2)c(-c2ccncc2)c(=O)[nH]1 [Example 2, 2-Amino-6-(2-furyl)-5-(4-pyridyl)-3,4-dihydro-4-pyrimidinone]",345 nM,256 nM,1110 nM
"Cn1c(N)nc(-c2ccco2)c(-c2ccncc2)c1=O [Example 7, 2-Amino-6-(2-furyl)-3-methyl-5-(4-pyridyl)-3,4-dihydro-4-pyrimidinone]",493 nM,71 nM,966 nM
